Key:
Format in all cases: cell-based, Escherichia coli
EKO-35-Pore = test: MIC susceptibility profiling, porinated strain; details: for Fold changes of MICs: EKO-35-Pore compared to EKO-35-Pore (reference); for Minimum inhibitory concentration (MIC), Pore EKO-35: Table 10, with pore; for Minimum inhibitory concentration (MIC), Pore EKO-35 / Minimum inhibitory concentration, EKO-35-Pore: technical duplicate; for Minimum inhibitory concentration, EKO-35-Pore: Table 14A, porinated
Method in brief: (§1)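 MIC values come from background-corrected OD600 readings (pre-incubation OD subtracted) after 18 h at 37 °C and 900 rpm in MHB II. Compounds were tested in duplicate as 2-fold dilutions. The inoculum came from 18 h LB cultures adjusted to OD600 ~1.0 and diluted 1/2000, and the pore-bearing strains were vancomycin-checked beforehand.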

ΔtolC-Pore = test: microbe, parasite or virus in culture; details: technical duplicate; for Minimum inhibitory concentration (MIC), Pore ΔtolC: Table 10, with pore; for Minimum inhibitory concentration, ΔtolC-Pore: Table 14A, porinated
Method in brief: as §1

wild-type (WT) K-12-Pore = test: microbe, parasite or virus in culture; details: technical duplicate; for Minimum inhibitory concentration (MIC), Pore K-12: Table 10, with pore; for Minimum inhibitory concentration, K-12 (WT)-Pore: Table 14A, porinated
Method in brief: as §1

EKO-35 araC::acrEF Pore = test: MIC susceptibility profiling, porinated efflux platform; details: for Minimum inhibitory concentration, EKO-35 araC::acrEF Pore: Table 14A, porinated, technical duplicate
Method in brief: as §1

EKO-35 araC::emrAB Pore = test: as above; details: for Fold changes of MICs: EKO-35 araC::emrAB Pore compared to EKO-35-Pore; for Minimum inhibitory concentration: EKO-35 araC::emrAB Pore, technical duplicate
Method in brief: as §1

EKO-35 araC::acrD Pore = test: as above; details: for Fold changes of MICs: EKO-35 araC::acrD Pore compared to EKO-35-Pore; for Minimum inhibitory concentration, EKO-35 araC::acrD Pore: Table 14A, porinated, technical duplicate
Method in brief: as §1

EKO-35 araC::acrB Pore = test: as above; details: for Fold changes of MICs: EKO-35 araC::acr-B Pore compared to EKO-35-Pore; for Minimum inhibitory concentration, EKO-35 araC::acrB Pore: Table 14A, porinated, technical duplicate
Method in brief: as §1

[1] = tested on: EKO-35 araC::acrBD408A Pore; test: as above; details: for Fold changes of MICs: EKO-35 araC::acrBD408A Pore compared to EKO-35-Pore; for Minimum inhibitory concentration: EKO-35 araC::acrBD408A Pore, technical duplicate
Method in brief: as §1

EKO-35 araC::mdtBC = test: MIC susceptibility profiling, efflux platform; details: for Fold change of MICs: EKO-35 araC::mdtBC compared to EKO-35; for Minimum Inhibitory Concentration, EKO-35 araC::mdtBC: Table 13B, non-porinated, technical duplicate
Method in brief: (§2)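 Broth MIC in cation-adjusted Mueller-Hinton (MHB II) following twofold compound titration in duplicate. Bacteria were prepared at OD600 ~1.0 in PBS and diluted 1/2000. Endpoint OD600 after 18 h at 37 °C was corrected using the pre-incubation reading.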

EKO-35 araC::mdtEF = test: MIC susceptibility profiling, efflux platform; details: for Fold change of MICs: EKO-35 araC::mdtEF compared to EKO-35; for Minimum Inhibitory Concentration, EKO-35 araC::mdtEF: Table 13A, non-porinated, technical duplicate
Method in brief: as §2

EKO-35 araC::emrAB = test: MIC susceptibility profiling, efflux platform; details: for Fold change of MICs: EKO-35 araC::emrAB compared to EKO-35; for Minimum Inhibitory Concentration, EKO-35 araC::emrAB: Table 13B, non-porinated, technical duplicate
Method in brief: as §2

EKO-35 araC::acrEF = test: MIC susceptibility profiling, efflux platform; details: for Fold change of MICs: EKO-35 araC::acrEF compared to EKO-35; for Minimum Inhibitory Concentration, EKO-35 araC::acrEF: Table 13A, non-porinated, technical duplicate
Method in brief: as §2

EKO-35 araC::acrB = test: MIC susceptibility profiling, efflux platform; details: for Fold change of MICs: EKO-35 araC::acrB compared to EKO-35; for Minimum Inhibitory Concentration, EKO-35 araC::acrB: Table 13A, non-porinated, technical duplicate
Method in brief: as §2

[2] = tested on: EKO-35 araC::mexCD (MexCD from P. aeruginosa); test: MIC susceptibility profiling, efflux platform; details: for Fold change of MICs: EKO-35 araC::mexCD compared to EKO-35; for Minimum Inhibitory Concentration, EKO-35 araC::mexCD: Table 13B, non-porinated, technical duplicate
Method in brief: as §2

EKO-35 araC::acrBD408A = test: MIC susceptibility profiling, efflux platform; details: for Fold change of MICs: EKO-35 araC::acrBD408A compared to EKO-35; for Minimum Inhibitory Concentration, EKO-35 araC::acrBD408A: Table 13B, non-porinated, technical duplicate
Method in brief: as §2

EKO-35 araC::macAB = test: MIC susceptibility profiling, efflux platform; details: for Fold change of MICs: EKO-35 araC::macAB compared to EKO-35; for Minimum Inhibitory Concentration, EKO-35 araC::macAB: Table 13B, non-porinated, technical duplicate
Method in brief: as §2

EKO-35 araC::emrKY = test: MIC susceptibility profiling, efflux platform; details: for Fold change of MICs: EKO-35 araC::emrKY compared to EKO-35; for Minimum Inhibitory Concentration, EKO-35 araC::emrKY: Table 13B, non-porinated, technical duplicate
Method in brief: as §2

EKO-35 araC::acrD = test: MIC susceptibility profiling, efflux platform; details: for Fold change of MICs: EKO-35 araC::acrD compared to EKO-35; for Minimum Inhibitory Concentration, EKO-35 araC::acrD: Table 13A, non-porinated, technical duplicate
Method in brief: as §2

Row | SMILES | Fold changes of MICs (EKO-35-Pore) [fold] | Minimum inhibitory concentration (MIC), Pore EKO-35 (EKO-35-Pore) [µg/mL] | Minimum inhibitory concentration, EKO-35-Pore (EKO-35-Pore) [µg/mL] | Minimum inhibitory concentration (MIC), Pore ΔtolC (ΔtolC-Pore) [µg/mL] | Minimum inhibitory concentration, ΔtolC-Pore (ΔtolC-Pore) [µg/mL] | Minimum inhibitory concentration (MIC), Pore K-12 (wild-type (WT) K-12-Pore) [µg/mL] | Minimum inhibitory concentration, K-12 (WT)-Pore (wild-type (WT) K-12-Pore) [µg/mL] | Minimum inhibitory concentration, EKO-35 araC::acrEF Pore (EKO-35 araC::acrEF Pore) [µg/mL] | Fold changes of MICs (EKO-35 araC::emrAB Pore) [fold] | Minimum inhibitory concentration (EKO-35 araC::emrAB Pore) [µg/mL] | Fold changes of MICs (EKO-35 araC::acrD Pore) [fold] | Minimum inhibitory concentration, EKO-35 araC::acrD Pore (EKO-35 araC::acrD Pore) [µg/mL] | Fold changes of MICs (EKO-35 araC::acrB Pore) [fold] | Minimum inhibitory concentration, EKO-35 araC::acrB Pore (EKO-35 araC::acrB Pore) [µg/mL] | Fold changes of MICs [1] [fold] | Minimum inhibitory concentration [1] [µg/mL] | Fold change of MICs (EKO-35 araC::mdtBC) [fold] | Minimum Inhibitory Concentration, EKO-35 araC::mdtBC (EKO-35 araC::mdtBC) [µg/mL] | Fold change of MICs (EKO-35 araC::mdtEF) [fold] | Minimum Inhibitory Concentration, EKO-35 araC::mdtEF (EKO-35 araC::mdtEF) [µg/mL] | further results
1 | N#CC(=NNc1ccc(F)c(Cl)c1)C(=O)c1ccc(Cl)cc1 [compound 15] | 1 | 320 | 320 | 0.625 | 0.625 | 320 | 320 | 320 | 1 | 320 | 1 | 320 | 1 | 320 | 1 | 320 | 1 | 320 | 1 | 320 | Fold changes of MICs (EKO-35 araC::acrEF Pore; EKO-35 araC::acrEF Pore compared to EKO-35-Pore): 1 fold; Fold change of MICs (EKO-35 araC::emrAB): 1 fold; Minimum Inhibitory Concentration, EKO-35 araC::emrAB (EKO-35 araC::emrAB): 320 µg/mL; Fold change of MICs (EKO-35 araC::acrEF): 1 fold; Minimum Inhibitory Concentration, EKO-35 araC::acrEF (EKO-35 araC::acrEF): 320 µg/mL; Fold change of MICs (EKO-35 araC::acrB): 1 fold; Minimum Inhibitory Concentration, EKO-35 araC::acrB (EKO-35 araC::acrB): 320 µg/mL; Fold change of MICs [2]: 1 fold; Minimum Inhibitory Concentration, EKO-35 araC::mexCD [2]: 320 µg/mL; Fold change of MICs (EKO-35 araC::acrBD408A): 1 fold; Minimum Inhibitory Concentration, EKO-35 araC::acrBD408A (EKO-35 araC::acrBD408A): 320 µg/mL; Fold change of MICs (EKO-35 araC::macAB): 1 fold; Minimum Inhibitory Concentration, EKO-35 araC::macAB (EKO-35 araC::macAB): 320 µg/mL; Fold change of MICs (EKO-35 araC::emrKY): 1 fold; Minimum Inhibitory Concentration, EKO-35 araC::emrKY (EKO-35 araC::emrKY): 320 µg/mL; Fold change of MICs (EKO-35 araC::acrD): 1 fold; Minimum Inhibitory Concentration, EKO-35 araC::acrD (EKO-35 araC::acrD): 320 µg/mL
2 | CC(C)(C)c1cc(C(=O)NNC(=O)Nc2cccc3ccccc23)n(Cc2ccc(F)cc2)n1 [compound 4] | 1 | 2.5 | 2.5 | 1.25 | 1.25 | 320 | 320 | 320 | 8 | 20 | 4 | 10 | 128 | 320 | 1 | 2.5 | 1 | 20 | 16 | 320 | Fold change of MICs (EKO-35 araC::emrAB): 16 fold; Minimum Inhibitory Concentration, EKO-35 araC::emrAB (EKO-35 araC::emrAB): 320 µg/mL; Fold change of MICs (EKO-35 araC::acrEF): 16 fold; Minimum Inhibitory Concentration, EKO-35 araC::acrEF (EKO-35 araC::acrEF): 320 µg/mL; Fold change of MICs (EKO-35 araC::acrB): 16 fold; Minimum Inhibitory Concentration, EKO-35 araC::acrB (EKO-35 araC::acrB): 320 µg/mL; Fold change of MICs [2]: 16 fold; Minimum Inhibitory Concentration, EKO-35 araC::mexCD [2]: 320 µg/mL; Fold change of MICs (EKO-35 araC::acrBD408A): 1 fold; Minimum Inhibitory Concentration, EKO-35 araC::acrBD408A (EKO-35 araC::acrBD408A): 20 µg/mL; Fold change of MICs (EKO-35 araC::macAB): 1 fold; Minimum Inhibitory Concentration, EKO-35 araC::macAB (EKO-35 araC::macAB): 20 µg/mL; Fold change of MICs (EKO-35 araC::emrKY): 1 fold; Minimum Inhibitory Concentration, EKO-35 araC::emrKY (EKO-35 araC::emrKY): 20 µg/mL; Fold change of MICs (EKO-35 araC::acrD): 16 fold; Minimum Inhibitory Concentration, EKO-35 araC::acrD (EKO-35 araC::acrD): 320 µg/mL

Reference: patent US20230407243A1, “GENETIC PLATFORM TO INVESTIGATE THE FUNCTIONS OF BACTERIAL DRUG EFFLUX PUMPS” (priority 2022, published 2023)
